Measurements taken from ChEMBL document CHEMBL1201862, “PubChem BioAssay data set” (2004).
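In this assay, cells in 96-well plates receive the compound at five concentrations for 48 hours. Endpoints are linearly interpolated between the surrounding concentrations. GI50 marks 50% less growth.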 Calls of active or inactive are those of the source. Rule as the data show it: active = GI50 up to about 1.1 µM and inactive = higher.

Columns and labels:
Test in all cases: NCI anticancer screen, dose series, 48 h
SK-OV-3 = system: SK-OV-3
MDA-MB-231 = system: MDA-MB-231
SNB-75 = system: SNB-75
HOP-92 = system: HOP-92
BT-549 = system: BT-549
MDA-MB-435 = system: MDA-MB-435
OVCAR-5 = system: OVCAR-5
T47D = system: T47D
NCI-H23 = system: NCI-H23
DU-145 = system: DU-145
TK-10 = system: TK-10
HT-29 = system: HT-29
NCI/ADR-RES = system: NCI/ADR-RES
OVCAR-3 = system: OVCAR-3
LOX IMVI = system: LOX IMVI
EKVX = system: EKVX
HCT-116 = system: HCT-116
HCT-15 = system: HCT-15
OVCAR-8 = system: OVCAR-8
CAKI-1 = system: CAKI-1

Structure (SMILES)	GI50 (SK-OV-3)	GI50 (MDA-MB-231)	GI50 (SNB-75)	GI50 (HOP-92)	GI50 (BT-549)	GI50 (MDA-MB-435)	GI50 (OVCAR-5)	GI50 (T47D)	GI50 (NCI-H23)	GI50 (DU-145)	GI50 (TK-10)	GI50 (HT-29)	GI50 (NCI/ADR-RES)	GI50 (OVCAR-3)	GI50 (LOX IMVI)	GI50 (EKVX)	GI50 (HCT-116)	GI50 (HCT-15)	GI50 (OVCAR-8)	GI50 (CAKI-1)
Cc1ccc(NC(=O)C23CC4CC(CC(C4)C2)C3)c(C(=O)NNC(=O)c2ccc(Cl)cc2)c1	15.8 µM (inactive)	15.5 µM (inactive)	< 0.01 µM (active)	9.48 µM (inactive)	35.9 µM (inactive)	17.3 µM (inactive)	17.3 µM (inactive)	18.3 µM (inactive)	12.9 µM (inactive)	27.6 µM (inactive)	17.7 µM (inactive)	23.7 µM (inactive)	21.2 µM (inactive)	20.7 µM (inactive)	17 µM (inactive)	18.5 µM (inactive)	25.8 µM (inactive)	17 µM	30.2 µM (inactive)	23.3 µM (inactive)
CCCCCCCCCCCCCCCCOC[C@@H](COC(c1ccccc1)(c1ccccc1)c1ccccc1)O[PH](=S)OC (stereo not given in full)	5.68 µM (inactive)	2.28 µM (inactive)	10.3 µM (inactive)	12.4 µM (inactive)	3.35 µM (inactive)	2.24 µM (inactive)	10.8 µM (inactive)	16.2 µM (inactive)	10.9 µM (inactive)	17 µM (inactive)	11.5 µM (inactive)	16.8 µM (inactive)	22.6 µM (inactive)	13.2 µM (inactive)	2.98 µM (inactive)	13.6 µM (inactive)	3.86 µM (inactive)	10.6 µM	12.1 µM (inactive)	11.6 µM (inactive)
N#CC12CC3=C(N=C1NC1=C(CCc4ccccc41)C2)c1ccccc1CC3 (stereo not given)	2.67 µM (inactive)	4.16 µM (inactive)	1.64 µM (inactive)	2.72 µM (inactive)	9.29 µM (inactive)	0.278 µM (active)	4.22 µM (inactive)	6.67 µM (inactive)	3.18 µM (inactive)	3.97 µM (inactive)	4.61 µM (inactive)	0.533 µM (active)	2.97 µM (inactive)	0.538 µM (active)	1.42 µM (inactive)	4.67 µM (inactive)	1.95 µM (inactive)	1.76 µM	3.24 µM (inactive)	3.8 µM (inactive)
CCOC(=O)/C1=C(\C)N(Cc2ccccc2)C(=O)c2ccccc2C(=O)c2c(O)ccc(O)c21	> 100 µM (inactive)	> 100 µM (inactive)	> 100 µM (inactive)	48.4 µM (inactive)	< 0.01 µM (active)	> 100 µM (inactive)	> 100 µM (inactive)	> 100 µM (inactive)	> 100 µM (inactive)	> 100 µM (inactive)	> 100 µM (inactive)	> 100 µM (inactive)	> 100 µM (inactive)	> 100 µM (inactive)	> 100 µM (inactive)	80.7 µM (inactive)	> 100 µM (inactive)	> 100 µM	> 100 µM (inactive)	> 100 µM (inactive)
CC(=O)O[C@H]1C[C@H](O[C@H]2[C@@H](O)C[C@H](O[C@H]3[C@@H](O)C[C@H](O[C@H]4CC[C@@]5(C)[C@H](CC[C@@H]6[C@@H]5C[C@@H](O)[C@]5(C)[C@@H](C7=CC(=O)OC7)CC[C@]65O)C4)O[C@@H]3C)O[C@@H]2C)O[C@H](C)[C@H]1O[C@@H]1O[C@H](CO)[C@@H](O)[C@H](O)[C@H]1O [LANATOSIDE C]	0.0597 µM (active)	0.372 µM (active)	0.167 µM (active)	0.122 µM (active)	0.044 µM (active)	0.212 µM (active)	0.0869 µM (active)	0.0778 µM (active)	0.0193 µM (active)	0.0313 µM (active)	0.0454 µM (active)	0.048 µM (active)	0.0364 µM (active)	0.041 µM (active)	0.042 µM (active)	0.0284 µM (active)	0.0324 µM (active)	0.0409 µM	0.0612 µM (active)	0.0336 µM (active)
CCOC(=O)c1cc2cc(N(C(C)=O)C(C)=O)ccc2s1	30.4 µM (inactive)	23 µM (inactive)	10.1 µM (inactive)	27.1 µM (inactive)	29.9 µM (inactive)	37 µM (inactive)	25.1 µM (inactive)	18.3 µM (inactive)	45.3 µM (inactive)	23.7 µM (inactive)	56.6 µM (inactive)	20 µM (inactive)	33.7 µM (inactive)	30.8 µM (inactive)	33.5 µM (inactive)	20.6 µM (inactive)	29.5 µM (inactive)	36.1 µM	26.8 µM (inactive)	39.4 µM (inactive)
CCOC(=O)c1c[nH]c(C(=O)OCC)c1-c1cccn1-c1ccccc1	28.4 µM (inactive)	28.6 µM (inactive)	7.06 µM (inactive)	23.3 µM (inactive)	25.3 µM (inactive)	27.5 µM (inactive)	> 100 µM (inactive)	28.1 µM (inactive)	28.5 µM (inactive)	43.2 µM (inactive)	36 µM (inactive)	26.4 µM (inactive)	19.1 µM (inactive)	16.8 µM (inactive)	16.9 µM (inactive)	24.8 µM (inactive)	15.6 µM (inactive)	30.4 µM	19.2 µM (inactive)	20.9 µM (inactive)
